Assay results from patent publication US20130296426A1, “ANALGESIC” (NAGOYA INDUSTRIAL SCIENCE RESEARCH INSTITUTE, priority 2011, published 2013).

Legend:
Assay type in all cases: in vivo, rat
MIA-induced OA rats [1] = assay: von Frey test, single administration to MIA-induced OA rats; conditions: for Recovery rate of 50% reaction threshold value (%): 1 hour after administration of test drug
Method: There were conducted the following experiments for testing the analgesic action of the analgesic of the present invention using the osteoarthritis (OA) rats induced by sodium monoiodoacetate (MIA) which were model animals for OA.
A 50% reaction threshold value to the mechanical stimulus of male Wistar rats of six weeks age was measured (the measuring method will be mentioned later) and a normal control group was selected. MIA prepared by saline was administered in a single dose of 0.3 mg/50 μL into right knee joint of the rats except the normal control group while 50 μL of saline was administered into left knee joint whereupon the MIA-induced OA rats were prepared. To the normal control group, 50 μL of saline was administered into the joints of both knees.
With regard to the male Wistar rats of six weeks age used as experimental animals except the normal control group, their 50% reaction threshold values to the mechanical stimulus (the measuring method will be mentioned later) and body weights were measured after 24 days from the administration of MIA mentioned in (1) and then 4 groups each comprising six rats [a normal control group, an onset control group, a test drug-administered group and a loxoprofen sodium hydrate (LOX)-administered group (a positive control)] were organized.
A test drug solution (0.1 mg/mL) using the compound 4 as a test drug and a LOX suspension (1 mg/mL) were prepared using a phosphate buffered saline (PBS) containing 0.1 vol % of dimethyl sulfoxide (DMSO) and a 0.5 w/v % aqueous solution of carboxymethyl cellulose, respectively.
Immediately after the grouping (after 24 days from the administration of MIA), a test drug solution was intraperitoneally administered in a single dose of 0.5 mg/kg to a test drug-administered group while, a LOX suspension was orally administered in a single dose of 5 mg/kg to a LOX-administered group. Meanwhile, to the normal control group and the onset control group, PBS containing 0.1 vol % of DMSO was intraperitoneally administered in a single dose.
The four groups of rats of the above (2) were placed in a transparent acrylic cage with a wire-meshed floor and habituated for about three minutes and the 50% reaction threshold values to the mechanical stimulus were measured after 1, 3, 5 and 24 hours from the administration of a test drug.
The measurement was conducted using von Frey filaments (manufactured by North Coast Medical Inc.) in accordance with the methods of Chaplan, et al. (Journal of Neuroscience Methods, vol. 53, no. 1, pages 55 to 63, 1994) and Dixon, et al. (Annual Review of Pharmacology and Toxicology; vol. 20, pages 441 to 462, 1980). […] The case where the rat escaped at the instance of removing the filament was also called positive. When the positive reaction was noted, stimulus was conducted similarly using a filament of one rank weaker while, when no reaction was noted, stimulus was conducted similarly using a filament of one rank stronger and the point when the reaction changed from negative to positive or from positive to negative was called the first two reactions. After that, stimulus was conducted for continuous four times by the same up-down method. A 50% reaction threshold value to the mechanical stimulus was measured using the reaction to the six stimuli in total and then (mean value)±(standard error) for each group was calculated. Incidentally, when stimulus reached by that of 15.0 g without positive reaction or, when positive reaction continued to 0.4 g, then 15.0 g or 0.25 g was adopted as each threshold value, respectively.
The test for significant difference was performed using the test in two groups (Student's t-test or Welch test) or Wilcoxon test between the normal control group and the onset control group, between the onset control group and the test drug-administered group, between the onset control group and the LOX-administered group and between the test drug-administered group and the LOX-administered group. […]

MIA-induced OA rats [2] = assay: von Frey test, repeated administration to MIA-induced OA rats; conditions: for Recovery rate of 50% reaction threshold value (%): repeated administration, 1 hour after administration of test drug
Method: Selection of the normal control group and preparation of MIA-induced OA rats were conducted in the same manner as in the above 1.(1).
With regard to the male Wistar rats of six weeks age used as experimental animals except the normal control group, their 50% reaction threshold values to the mechanical stimulus, weight bearing rate to a MIA-non-administered hind paw (the measuring method will be mentioned later) and body weights were measured after 27 days from the administration of MIA mentioned in (1) and then four groups each comprising six rats [a normal control group, an onset control group, a test drug-administered group and a LOX-administered group (a positive control)] were organized.
A test drug solution and an LOX suspension were prepared in the same manner as in the above 1.(2).
(§1) During eight days from immediately after the grouping (after 27 to 34 days from the administration of MIA), a test drug solution was intraperitoneally administered in repeated dose of 0.5 mg/kg to a test drug-administered group while, a LOX suspension was orally administered in repeated dose of 5 mg/kg to a LOX-administered group. Meanwhile, to the normal control group and the onset control group, PBS containing 0.1 vol % of DMSO was intraperitoneally administered repeatedly.
In the same manner as in the above 1.(4), the 50% reaction threshold values to the mechanical stimulus were measured after 1, 3, 5 and 24 hour(s) from the final administration of a test drug. Mean value±standard error for each group was calculated and the test for significant difference was done in the same manner as in the above 1.(4).
The analgesic of the present invention was repeatedly administered to the MIA-induced OA rat and a von Frey test was conducted in the same manner as in the above test 1.(4) whereupon each 50% reaction threshold value was measured. With regard to the 50% reaction threshold value after 1 hour from the administration of a test drug, a recovery rate (%) of the 50% reaction threshold value was calculated in the same manner as in the above test 1.(4).

MIA-induced OA rats [3] = assay: Weight bearing rate to MIA-non-administered hind paw (dual channel weight averager), repeated administration
Method: as §1
One hind paw of a rat where OA was induced by administration of MIA develops a pain symptom. Therefore, a body weight bearing to a painless hind paw to which no MIA was administered increases in a rat for avoiding the application of body weight to the hind paw after administration of MIA. […] Using this weight bearing rate to the MIA-non-administered hind paw as an index, the analgesic action of the analgesic of the present invention was measured.
The weight bearing rate to the MIA-non-administered hind paw was determined by the following formula after measuring the weight distribution to right and left hind paws of a rat using a device for evaluating the analgesic effect for small animals (Incapacitance Tester manufactured by Linton Instrumentation). Mean value±standard error for each group was also calculated and the test for significant difference was carried out in the same manner as in the above 1.(4). […]

[4] = tested on: experimental autoimmune neuritis (EAN) rats; assay: von Frey test in Guillain-Bareé syndrome model (EAN) rats
Method: The following experiment for checking the analgesic action of the analgesic of the present invention was conducted using the experimental autoimmune neuritis (EAN) rats which were the model animals for Guillain-Bareé syndrome having an on set of chronic pain.
The 50% reaction threshold value to mechanical stimulus of female Lewis rats of seven weeks age were measured to select a normal control group. Left hind paw of each of the anesthetized rats except the normal control group was immunized by subcutaneous administration of 0.1 mL of an emulsion prepared by equivalent mixing of a 2 mg/mL solution of a peptide derived from bovine P2 protein (SP-26) with an adjuvant complete Freund H37Ra whereupon EAN rats were prepared.
The grouping was conducted and a test drug was administered in the same manner as in (2) and (3) of the Pharmacological Test II.
A von Frey test was carried out in the same manner as in 1.(4) of the above Pharmacological Test I to measure the 50% reaction threshold value to the mechanical stimulus to each group over time. The test for significant difference was conducted and recovery rate (%) of the 50% reaction threshold value was calculated in the same manner as in (4) of the above Pharmacological Test II.

## CCCCCCC/C=C/C(=O)OC1CCCCC1 [Compound 18, Trans-2-decenoic acid cyclohexyl ester]
MIA-induced OA rats [1]; single dose
  Recovery rate of 50% reaction threshold value (%): 20.8%
MIA-induced OA rats [2]
  Recovery rate of 50% reaction threshold value (%): 32.6%

## CC(C(=O)O)c1ccc(CC2CCCC2=O)cc1 (stereo not shown) [LOX, loxoprofen sodium hydrate, reference compound]
MIA-induced OA rats [1]; single oral dose 5 mg/kg, 24 days after MIA, vs onset control group, FIG. 1
  suppressive action to hyperalgesia (50% reaction threshold value): no significant suppressive action to hyperalgesia

## CCCCCCC/C=C/C(=O)OCC [Compound 4, Trans-2-decenoic acid ethyl ester]
MIA-induced OA rats [1]; single dose
  Recovery rate of 50% reaction threshold value (%): 61.6%
MIA-induced OA rats [1]; single intraperitoneal dose 0.5 mg/kg, 24 days after MIA, vs onset control group, FIG. 1
  50% reaction threshold value to the mechanical stimulus: significantly high
MIA-induced OA rats [2]; repeated intraperitoneal 0.5 mg/kg for eight days, after 1 and 3 hour(s) from the final administration, vs onset control group, FIG. 2
  50% reaction threshold value to the mechanical stimulus: significantly high
MIA-induced OA rats [3]; repeated intraperitoneal 0.5 mg/kg for eight days, vs onset control group, FIG. 3
  weight bearing rate to the MIA-non-administered hind paw: significantly decreased
[4]; 0.25 mg/kg/day intraperitoneal once daily, After 8 days
  Recovery rate of 50% reaction threshold value (%): 100.0^[…] %
[4]; 0.25 mg/kg/day intraperitoneal once daily, After 11 days
  Recovery rate of 50% reaction threshold value (%): 40.1^[…] %
[4]; 0.25 mg/kg/day intraperitoneal once daily, After 25 days
  Recovery rate of 50% reaction threshold value (%): 21.7^[…] %
[4]; 0.25 mg/kg/day intraperitoneal once daily, After 28 days
  Recovery rate of 50% reaction threshold value (%): 24.2^[…] %
[4]; 0.50 mg/kg/day intraperitoneal once daily, After 8 days
  Recovery rate of 50% reaction threshold value (%): 98.5^[…] %
[4]; 0.50 mg/kg/day intraperitoneal once daily, After 11 days
  Recovery rate of 50% reaction threshold value (%): 35.5%
[4]; 0.50 mg/kg/day intraperitoneal once daily, After 25 days
  Recovery rate of 50% reaction threshold value (%): 38.3^[…] %
[4]; 0.50 mg/kg/day intraperitoneal once daily, After 28 days
  Recovery rate of 50% reaction threshold value (%): 38.3^[…] %

## CCCCCCC/C=C/COC(=O)/C=C/CCCCCCC [Compound 16, Trans-2-decenoic acid trans-2-decenyl ester]
MIA-induced OA rats [1]; single dose
  Recovery rate of 50% reaction threshold value (%): 39.6%
MIA-induced OA rats [2]
  Recovery rate of 50% reaction threshold value (%): 61.4%
MIA-induced OA rats [3]; repeated intraperitoneal 0.5 mg/kg/day, FIG. 4
  weight bearing rate to the MIA-non-administered hind paw: significantly lowered

## CCCCCCC/C=C/C(=O)OCCC [Compound 5, Trans-2-decenoic acid propyl ester]
MIA-induced OA rats [1]; single dose
  Recovery rate of 50% reaction threshold value (%): 8.1%

## CCCCCC/C=C/CC(=O)OCC [Compound 20, Trans-3-decenoic acid ethyl ester]
MIA-induced OA rats [1]; single dose
  Recovery rate of 50% reaction threshold value (%): 17.7%
MIA-induced OA rats [2]
  Recovery rate of 50% reaction threshold value (%): 66.3%

## CCCCCCC/C=C/C(=O)OC [Compound 3, Trans-2-decenoic acid methyl ester]
MIA-induced OA rats [1]; single dose
  Recovery rate of 50% reaction threshold value (%): 32.4%
MIA-induced OA rats [2]
  Recovery rate of 50% reaction threshold value (%): 23.3%

## CCCCCCC/C=C/C(=O)O [trans-2-decenoic acid, reference compound]
MIA-induced OA rats [1]; single dose, 1 hour after administration
  suppressive effect for hyperalgesia (50% reaction threshold value before vs after 1 hour from administration): no suppressive effect for hyperalgesia

## C=CCCCCCCCCOC(=O)/C=C/CCCCCCC [Compound 17, Trans-2-decenoic acid trans-9-decenyl ester]
MIA-induced OA rats [1]; single dose
  Recovery rate of 50% reaction threshold value (%): 19.5%
